The test system of series [1] is SKOV3 cells (wildtype, drug sensitive human ovarian cancer cell line). The series can be described thus: In-vitro cytotoxicity, MTS (formazan) assay, 6-day treatment. The series is classed as cell-based. Particulars: 6 days. The method, then:
(§1) In in-vitro cytotoxicity studies, the wildtype (drug sensitive (DS)) human ovarian cancer cell line SKOV3 was maintained in culture alongside an SKOV3TR subculture that was selected for multi-drug resistance in the presence of increasing concentrations of PTX. For cytotoxicity studies, 96-well plates were prepared with each cell type seeded at 5000 cells/well. The DS and MDR cells were subjected to dose-response studies against PTX, CER and PTX combined with CER, delivered as free drugs in solution or delivered in PEO-PCL nanoparticles. All studies were performed alongside a negative control (cell growth medium), a positive control (polyethyleneimine, PEI), and proper vehicle controls. Since PTX is a cell-cycle dependant chemotherapeutic, all treatments were left to proceed undisturbed for 6 days, allowing ample time for all cells to enter mitosis. Resulting cell death/viability was measured by the MTS (formazan) assay.

The test system of series [2] is SKOV3TR cells (multi-drug resistant, PTX-selected subculture of SKOV3). Briefly: cells. The series is classed as cell-based, human. The method, then:
as §1

“And” between values parts separate entries of the source, which are not always exact repeats. Equal entries are not always repeated.

Regarding `CC(=O)O[C@H]1C(=O)[C@@]2(C)[C@H]([C@H](OC(=O)c3ccccc3)[C@]3(O)C[C@H](OC(=O)[C@H](O)[C@@H](NC(=O)c4ccccc4)c4ccccc4)C(C)=C1C3(C)C)[C@]1(OC(C)=O)CO[C@@H]1C[C@@H]2O` [PTX, Paclitaxel], the viability at 0.001 µM in series [1] (Homo sapiens, SK-OV-3, 144 h, SKOV3, 1 nM PTX in solution, read-out: percent cell viability (cells survived)) stood at 76 ± 5.92%. The viability at 0.1 µM in series [1] (Homo sapiens, SK-OV-3, 144 h, SKOV3, 100 nM PTX in solution, read-out: percent cell viability (cells survived)) turned out to be 16.4 ± 0.41%; in series [2] (Homo sapiens, 144 h, 100 nM PTX in solution, 6 days, read-out: percent cell viability) it was 100 ± 5.78%. For the same molecule, the IC50 in series [1] (Homo sapiens, SK-OV-3, 144 h, SKOV3, free drug in solution, read-out: IC50 of drug sensitive (SKOV3) cells to PTX in solution) is approximately 5 nM. For the same molecule, the “percent of MDR cells survived” value in series [2] (10 nM PTX) was found to be 100%. In series [2] (1 μM PTX in solution, 6 days), this molecule gave a percent cell viability of 65.6±2.2%. In addition, the viability at 1 µM in series [2] (Homo sapiens, 144 h, 1 μM PTX in solution, 6 days, read-out: percent cell viability) is 65.7 ± 2.16%.
For the molecule `CCCCCCCCCCCCC/C=C/[C@@H](O)[C@H](CO)NC(=O)CCCCC` [CER, C6-ceramide], the percent cell viability in series [1] (SKOV3, CER alone 10 μM in solution, p<0.05) is 75.08±7.86%; in series [2] (CER alone 20 μM in solution, 6 days), 91.18±7.61% and 91.2±7.6%.

(Values after patent publication US20060257493A1, “Nanoparticulate delivery systems for treating multi-drug resistance” (priority 2005, published 2006).)
